# System: subjects with moderate-to-severe plaque psoriasis
# Test: PSSD symptom and sign scores, Example 2
# Type: in vivo, human
# Settings: for Change from Baseline in PSSD Sign Score, LSMean / Change from Baseline in PSSD Symptom Score, LSMean: MMRM
smiles,measurement,setting,value
"CC(=O)NCCCC[C@@H]1NC(=O)[C@H](Cc2c[nH]c3c(C)cccc23)NC(=O)[C@H]([C@@H](C)O)NC(=O)[C@H](CC(N)=O)NC(=O)[C@@H](NC(C)=O)C(C)(C)SSC(C)(C)[C@@H](C(=O)N[C@@H](Cc2ccc(OCCN)cc2)C(=O)N[C@@H](Cc2ccc3ccccc3c2)C(=O)NC2(C(=O)N[C@@H](CCC(=O)O)C(=O)N[C@@H](CC(N)=O)C(=O)N[C@@H](Cc3cccnc3)C(=O)N(C)CC(N)=O)CCOCC2)NC1=O [IL-23 receptor antagonist peptide, Ac-[Pen]*-N-T-[W(7-Me)]-[Lys(Ac)]-[Pen]*-Phe[4-(2-aminoethoxy)]-[2-Nal]-[THP]-E-N-[3-Pal]-Sarc-NH2 (*[Pen]-[Pen]* formdisulfidebond)]","Change from Baseline in PSSD Symptom Score, Mean","Week 32, 100 mg QD",−28.0
same,"Change from Baseline in PSSD Symptom Score, Median","Week 32, 100 mg QD",−25.0
same,Subjects Achieving PSSD Sign Score 0 (%),"Week 32, 100 mg QD, Baseline Sign Score ≥1, N=43",(14.0%)
same,Subjects Achieving PSSD Symptom Score 0 (%),"Week 32, 100 mg QD, Baseline Symptom Score ≥1, N=43",(18.6%)
same,"Change from Baseline in PSSD Sign Score, LSMean","Week 32, 100 mg QD",−45.8
same,"Change from Baseline in PSSD Symptom Score, LSMean","Week 32, 100 mg QD",−36.4
same,"Change from Baseline in PSSD Sign Score, Mean","Week 32, Placebo → 100 mg QD",−42.3
same,"Change from Baseline in PSSD Sign Score, Median","Week 32, Placebo → 100 mg QD",−45.0
same,"Change from Baseline in PSSD Symptom Score, Mean","Week 32, Placebo → 100 mg QD",−31.9
same,"Change from Baseline in PSSD Symptom Score, Median","Week 32, Placebo → 100 mg QD",−36.0
same,Subjects Achieving PSSD Sign Score 0 (%),"Week 32, Placebo → 100 mg QD, Baseline Sign Score ≥1, crossed-over subjects only",(17.1%)
same,Subjects Achieving PSSD Symptom Score 0 (%),"Week 32, Placebo → 100 mg QD, Baseline Symptom Score ≥1, crossed-over subjects only",(20.0%)
same,"Change from Baseline in PSSD Sign Score, LSMean","Week 32, Placebo → 100 mg QD",−41.8
same,"Change from Baseline in PSSD Symptom Score, LSMean","Week 32, Placebo → 100 mg QD",−33.9
same,"Change from Baseline in PSSD Sign Score, Mean","Week 40, 25 mg BID",−34.1
same,"Change from Baseline in PSSD Sign Score, Median","Week 40, 25 mg BID",−34.0
same,"Change from Baseline in PSSD Symptom Score, Mean","Week 40, 25 mg BID",−30.0
same,"Change from Baseline in PSSD Symptom Score, Median","Week 40, 25 mg BID",−32.0
same,Subjects Achieving PSSD Sign Score 0 (%),"Week 40, 25 mg BID, Baseline Sign Score ≥1, N=41",(4.9%)
same,Subjects Achieving PSSD Symptom Score 0 (%),"Week 40, 25 mg BID, Baseline Symptom Score ≥1, N=41",(9.8%)
same,"Change from Baseline in PSSD Sign Score, LSMean","Week 40, 25 mg BID",−34.9
same,"Change from Baseline in PSSD Symptom Score, LSMean","Week 40, 25 mg BID",−30.5
same,"Change from Baseline in PSSD Sign Score, Mean","Week 40, 25 mg QD",−36.9
same,"Change from Baseline in PSSD Sign Score, Median","Week 40, 25 mg QD",−36.0
same,"Change from Baseline in PSSD Symptom Score, Mean","Week 40, 25 mg QD",−33.9
same,"Change from Baseline in PSSD Symptom Score, Median","Week 40, 25 mg QD",−35.0
same,Subjects Achieving PSSD Sign Score 0 (%),"Week 40, 25 mg QD, Baseline Sign Score ≥1, N=43",(11.6%)
same,Subjects Achieving PSSD Symptom Score 0 (%),"Week 40, 25 mg QD, Baseline Symptom Score ≥1, N=43",(20.9%)
same,"Change from Baseline in PSSD Sign Score, LSMean","Week 40, 25 mg QD",−29.4
same,"Change from Baseline in PSSD Symptom Score, LSMean","Week 40, 25 mg QD",−25.9
same,"Change from Baseline in PSSD Sign Score, Mean","Week 40, 50 mg QD",−39.6
same,"Change from Baseline in PSSD Sign Score, Median","Week 40, 50 mg QD",−42.0
same,"Change from Baseline in PSSD Symptom Score, Mean","Week 40, 50 mg QD",−34.9
same,"Change from Baseline in PSSD Symptom Score, Median","Week 40, 50 mg QD",−32.0
same,Subjects Achieving PSSD Sign Score 0 (%),"Week 40, 50 mg QD, Baseline Sign Score ≥1, N=43",(9.3%)
same,Subjects Achieving PSSD Symptom Score 0 (%),"Week 40, 50 mg QD, Baseline Symptom Score ≥1, N=42",(23.8%)
same,"Change from Baseline in PSSD Sign Score, LSMean","Week 40, 50 mg QD",−39.5
same,"Change from Baseline in PSSD Symptom Score, LSMean","Week 40, 50 mg QD",−32.7
same,"Change from Baseline in PSSD Sign Score, Mean","Week 40, 100 mg BID",−52.4
same,"Change from Baseline in PSSD Sign Score, Median","Week 40, 100 mg BID",−54.5
same,"Change from Baseline in PSSD Symptom Score, Mean","Week 40, 100 mg BID",−47.5
same,"Change from Baseline in PSSD Symptom Score, Median","Week 40, 100 mg BID",−49.5
same,Subjects Achieving PSSD Sign Score 0 (%),"Week 40, 100 mg BID, Baseline Sign Score ≥1, N=42",(19.0%)
same,Subjects Achieving PSSD Symptom Score 0 (%),"Week 40, 100 mg BID, Baseline Symptom Score ≥1, N=42",(28.6%)
same,"Change from Baseline in PSSD Sign Score, LSMean","Week 40, 100 mg BID",−51.4
same,"Change from Baseline in PSSD Symptom Score, LSMean","Week 40, 100 mg BID",−43.5
same,"Change from Baseline in PSSD Sign Score, Mean","Week 40, 100 mg QD",−42.4
same,"Change from Baseline in PSSD Sign Score, Median","Week 40, 100 mg QD",−43.0
same,"Change from Baseline in PSSD Symptom Score, Mean","Week 40, 100 mg QD",−28.2
same,"Change from Baseline in PSSD Symptom Score, Median","Week 40, 100 mg QD",−24.0
same,Subjects Achieving PSSD Sign Score 0 (%),"Week 40, 100 mg QD, Baseline Sign Score ≥1, N=43",(18.6%)
same,Subjects Achieving PSSD Symptom Score 0 (%),"Week 40, 100 mg QD, Baseline Symptom Score ≥1, N=43",(18.6%)
same,"Change from Baseline in PSSD Sign Score, LSMean","Week 40, 100 mg QD",−45.6
same,"Change from Baseline in PSSD Symptom Score, LSMean","Week 40, 100 mg QD",−36.1
same,"Change from Baseline in PSSD Sign Score, Mean","Week 40, Placebo → 100 mg QD",−36.6
same,"Change from Baseline in PSSD Sign Score, Median","Week 40, Placebo → 100 mg QD",−48.5
same,"Change from Baseline in PSSD Symptom Score, Mean","Week 40, Placebo → 100 mg QD",−23.8
same,"Change from Baseline in PSSD Symptom Score, Median","Week 40, Placebo → 100 mg QD",−24.0
same,Subjects Achieving PSSD Sign Score 0 (%),"Week 40, Placebo → 100 mg QD, Baseline Sign Score ≥1, crossed-over subjects only",(14.3%)
same,Subjects Achieving PSSD Symptom Score 0 (%),"Week 40, Placebo → 100 mg QD, Baseline Symptom Score ≥1, crossed-over subjects only",(25.7%)
same,"Change from Baseline in PSSD Sign Score, LSMean","Week 40, Placebo → 100 mg QD",−36.9
same,"Change from Baseline in PSSD Symptom Score, LSMean","Week 40, Placebo → 100 mg QD",−27.0
same,"Change from Baseline in PSSD Sign Score, Mean","Week 52, 25 mg BID",−36.6
same,"Change from Baseline in PSSD Sign Score, Median","Week 52, 25 mg BID",−38.5
same,"Change from Baseline in PSSD Symptom Score, Mean","Week 52, 25 mg BID",−31.2
same,"Change from Baseline in PSSD Symptom Score, Median","Week 52, 25 mg BID",−27.0
same,Subjects Achieving PSSD Sign Score 0 (%),"Week 52, 25 mg BID, Baseline Sign Score ≥1, N=41",(12.2%)
same,Subjects Achieving PSSD Symptom Score 0 (%),"Week 52, 25 mg BID, Baseline Symptom Score ≥1, N=41",(17.1%)
same,"Change from Baseline in PSSD Sign Score, LSMean","Week 52, 25 mg BID",−37.2
same,"Change from Baseline in PSSD Symptom Score, LSMean","Week 52, 25 mg BID",−31.4
same,"Change from Baseline in PSSD Sign Score, Mean","Week 52, 25 mg QD",−35.2
same,"Change from Baseline in PSSD Sign Score, Median","Week 52, 25 mg QD",−32.5
same,"Change from Baseline in PSSD Symptom Score, Mean","Week 52, 25 mg QD",−30.1
same,"Change from Baseline in PSSD Symptom Score, Median","Week 52, 25 mg QD",−35.0
same,Subjects Achieving PSSD Sign Score 0 (%),"Week 52, 25 mg QD, Baseline Sign Score ≥1, N=43",(16.3%)
same,Subjects Achieving PSSD Symptom Score 0 (%),"Week 52, 25 mg QD, Baseline Symptom Score ≥1, N=43",(18.6%)
same,"Change from Baseline in PSSD Sign Score, LSMean","Week 52, 25 mg QD",−27.9
same,"Change from Baseline in PSSD Symptom Score, LSMean","Week 52, 25 mg QD",−22.3
same,"Change from Baseline in PSSD Sign Score, Mean","Week 52, 50 mg QD",−39.2
same,"Change from Baseline in PSSD Sign Score, Median","Week 52, 50 mg QD",−45.0
same,"Change from Baseline in PSSD Symptom Score, Mean","Week 52, 50 mg QD",−35.2
same,"Change from Baseline in PSSD Symptom Score, Median","Week 52, 50 mg QD",−34.0
same,Subjects Achieving PSSD Sign Score 0 (%),"Week 52, 50 mg QD, Baseline Sign Score ≥1, N=43",(11.6%)
same,Subjects Achieving PSSD Symptom Score 0 (%),"Week 52, 50 mg QD, Baseline Symptom Score ≥1, N=42",(21.4%)
same,"Change from Baseline in PSSD Sign Score, LSMean","Week 52, 50 mg QD",−39.0
same,"Change from Baseline in PSSD Symptom Score, LSMean","Week 52, 50 mg QD",−33.0
same,"Change from Baseline in PSSD Sign Score, Mean","Week 52, 100 mg BID",−53.1
same,"Change from Baseline in PSSD Sign Score, Median","Week 52, 100 mg BID",−55.0
same,"Change from Baseline in PSSD Symptom Score, Mean","Week 52, 100 mg BID",−47.7
same,"Change from Baseline in PSSD Symptom Score, Median","Week 52, 100 mg BID",−53.0
same,Subjects Achieving PSSD Sign Score 0 (%),"Week 52, 100 mg BID, Baseline Sign Score ≥1, N=42",(16.7%)
same,Subjects Achieving PSSD Symptom Score 0 (%),"Week 52, 100 mg BID, Baseline Symptom Score ≥1, N=42",(26.2%)
same,"Change from Baseline in PSSD Sign Score, LSMean","Week 52, 100 mg BID",−51.9
same,"Change from Baseline in PSSD Symptom Score, LSMean","Week 52, 100 mg BID",−44.0
same,"Change from Baseline in PSSD Sign Score, Mean","Week 52, 100 mg QD",−43.1
same,"Change from Baseline in PSSD Sign Score, Median","Week 52, 100 mg QD",−43.0
same,"Change from Baseline in PSSD Symptom Score, Mean","Week 52, 100 mg QD",−29.4
same,"Change from Baseline in PSSD Symptom Score, Median","Week 52, 100 mg QD",−28.0
same,Subjects Achieving PSSD Sign Score 0 (%),"Week 52, 100 mg QD, Baseline Sign Score ≥1, N=43",(14.0%)
same,Subjects Achieving PSSD Symptom Score 0 (%),"Week 52, 100 mg QD, Baseline Symptom Score ≥1, N=43",(30.2%)
same,"Change from Baseline in PSSD Sign Score, LSMean","Week 52, 100 mg QD",−45.8
same,"Change from Baseline in PSSD Symptom Score, LSMean","Week 52, 100 mg QD",−36.5
same,"Change from Baseline in PSSD Sign Score, Mean","Week 52, Placebo → 100 mg QD",−42.8
same,"Change from Baseline in PSSD Sign Score, Median","Week 52, Placebo → 100 mg QD",−48.5
same,"Change from Baseline in PSSD Symptom Score, Mean","Week 52, Placebo → 100 mg QD",−29.5
same,"Change from Baseline in PSSD Symptom Score, Median","Week 52, Placebo → 100 mg QD",−30.0
same,Subjects Achieving PSSD Sign Score 0 (%),"Week 52, Placebo → 100 mg QD, Baseline Sign Score ≥1, crossed-over subjects only",(22.9%)
same,Subjects Achieving PSSD Symptom Score 0 (%),"Week 52, Placebo → 100 mg QD, Baseline Symptom Score ≥1, crossed-over subjects only",(34.3%)
same,"Change from Baseline in PSSD Sign Score, LSMean","Week 52, Placebo → 100 mg QD",−43.1
same,"Change from Baseline in PSSD Symptom Score, LSMean","Week 52, Placebo → 100 mg QD",−32.4

# — patent publication US20260232767A1, “INTERLEUKIN-23 RECEPTOR ANTAGONIST PEPTIDES FOR USE IN THE TREATMENT OF PSORIASIS” (Janssen Pharmaceutica NV, priority 2023, published 2026)
